Results reported in patent publication US5001134A, “Piperidines, processes of preparation and medications containing them” (Lipha, Lyonnaise Industrielle Pharmaceutique, priority 1989, dated 1991).

How the values were obtained:
[1] = tested on: isolated rat aorta; experiment: Antagonism towards serotonin in vitro on the isolated rat aorta (serotonin-triggered contraction); conditions: contraction by serotonin 20 μM, product added 10 min after serotonin, left 15 min, minimum of 3 aortas, read-out: Isolated rat aorta antiserotonin activity IC 50
Experimental: The thoracic aorta is rapidly removed. A fragment of approximately 1 cm is cut into a spiral and then placed in a cell containing 20 ml of nutrient medium (Krebs-Henseleit) kept at 37° C. and oxygenated (95% O2, 5% CO2). The contraction is recorded using an isotonic strain gauge. After a rest of 45 min, supramaximal contractions are triggered by adding serotonin (20 μM) to the survival medium. A plateau is generally reached after 10 min of contact, the latter not exceeding 25 min. A rest of 30 min and numerous rinsings separate each contraction. The products are added 10 min after the serotonin and left for 15 min, at the end of which period the inhibition is measured. The inhibiting concentration 50 (IC 50) is determined for each compound being studied on a minimum of 3 aortas.
(§1) The results obtained by these two methods in the case of a few products of the invention and in the case of ketanserin (3-[2-[4-(4-fluorobenzoyl)-1-piperidinyl]ethyl]quinazolin-2,4-(1H,3H)-dione), taken as control, are listed in Table I.

[2] = tested on: genetically hypertensive rat (SHR); experiment: Antihypertensive activity in the genetically hypertensive rat (SHR), oral, arterial pressure measured 3 hours later; assay type: in vivo; conditions: SHR male rats, groups of 10, 3 hours after oral treatment, read-out: Antihypertensive activity (SHR) M.A.D. (minimum dose significantly reducing the mean arterial pressure)
Experimental: The antihypertensive activity was investigated in the genetically hypertensive rat (SHR) whose arterial pressure was regularly monitored: hypertensive male rats having a particularly stable arterial pressure are grouped by 10 and treated orally with the compounds being studied Their arterial pressure is measured 3 hours later.
as §1

[3] = Toxicity, 50 lethal dose on the rat using the oral route; conditions: in vivo
Experimental: By way of illustration, the 50 lethal dose determined on the rat using the oral route, in the case of the compound described in Example 1, is 1,700 mg/kg, that is 170 times the active dose in this species.

Compound: O=C(c1ccc(F)cc1)C1CCN(CCn2c(=O)[nH]c3ccccc3c2=O)CC1 [Ketanserin, 3-[2-[4-(4-fluorobenzoyl)-1-piperidinyl]ethyl]quinazolin-2,4-(1H,3H)-dione, reference compound]
- IC50 [1]: 150 nM
- minimal effective dose [2]: 25 mg/kg

Compound: CN(C)C(=NC#N)NCCCN1CCC(C(=O)c2ccc(F)cc2)CC1 [Example 13]
- IC50 [1]: 1950 nM
- minimal effective dose [2]: 5 mg/kg

Compound: CNC(=C[N+](=O)[O-])NCCN1CCC(c2noc3cc(F)ccc23)CC1 [Example 26, N-[2-[4-(6-Fluoro-1,2-benzisoxazol-3-yl)-1-piperidinyl]ethyl]-N'-methyl-2-nitro-1,1-ethenediamine]
- IC50 [1]: 380 nM
- minimal effective dose [2]: 5 mg/kg

Compound: CNC(=NC#N)NCCN1CCC(C(=O)c2ccc(F)cc2)CC1 [Example 1, N-Cyano-N'-[2-[4-(4-fluorobenzoyl)-1-piperidinyl]ethyl]-N"-methylguanidine]
- IC50 [1]: 530 nM
- LD50 ([3]; oral route): 1700 mg/kg
- selectivity ratio ([3]; oral, LD50 / active dose, read-out: 50 lethal dose as multiple of the active dose in this species): 170
- minimal effective dose [2]: 10 mg/kg

Compound: N#CNC(=N)NCCCN1CCC(c2noc3cc(F)ccc23)CC1 [Example 22, N-Cyano-N'-[3-[4-(6-fluoro-1,2-benzisoxazol-3-yl)-1-piperidinyl]propyl]guanidine]
- IC50 [1]: 20 nM
- minimal effective dose [2]: 5 mg/kg

Compound: CCNC(=NCCCN1CCC(c2noc3cc(F)ccc23)CC1)NC#N [Example 20, N-Cyano-N'-ethyl-N"-[3-[4-(6-fluoro-1,2-benzisoxazol-3-yl)-1-piperidinyl]propyl]guanidine]
- IC50 [1]: 40 nM
- minimal effective dose [2]: 0.5 mg/kg

Compound: CN=C(NC#N)NCCCN1CCC(C(=O)c2ccc(F)cc2)CC1 [Example 12, N-Cyano-N'-[3-[4-(4-fluorobenzoyl)-1-piperidinyl]propyl]-N"-methylguanidine]
- IC50 [1]: 170 nM
- minimal effective dose [2]: 5 mg/kg

Compound: CN=C(NC#N)NCCCCN1CCC(C(=O)c2ccc(F)cc2)CC1 [Example 14, N-Cyano-N'-[4-[4-(4-fluorobenzoyl)-1-piperidinyl]butyl]-N"-methylguanidine]
- IC50 [1]: 670 nM
- minimal effective dose [2]: 10 mg/kg

Compound: CN=C(NC#N)NCCN1CCC(c2noc3cc(F)ccc23)CC1 [Example 18, N-Cyano-N'-[2-[4-(6-fluoro-1,2-benzisoxazol-3-yl)-1-piperidinyl]ethyl]-N"-methylguanidine]
- IC50 [1]: 90 nM
- minimal effective dose [2]: 2 mg/kg

Compound: CN=C(NC#N)NCCCN1CCC(c2noc3cc(F)ccc23)CC1 [Example 19, N-Cyano-N'-[3-[4-(6-fluoro-1,2-benzisoxazol-3-yl)-1piperidinyl]propyl]-N"-methylguanidine]
- IC50 [1]: 50 nM
- minimal effective dose [2]: 0.5 mg/kg

Compound: CN(C)C(=NCCN1CCC(C(=O)c2ccc(F)cc2)CC1)NC#N [Example 10, N'-Cyano-N,N-dimethyl-N"-[2-[4-(4-fluorobenzoyl)-1-piperidinyl]ethyl]guanidine]
- IC50 [1]: 460 nM
- minimal effective dose [2]: 10 mg/kg

Compound: CN(C)C(=NCCCN1CCC(c2noc3cc(F)ccc23)CC1)NC#N [Example 21, N'-Cyano-N,N-dimethyl-N"-[3-[4-(6-fluoro-1,2-benzisoxazol-3-yl)-1-piperidinyl]propyl]guanidine]
- IC50 [1]: 100 nM
- minimal effective dose [2]: 2 mg/kg

Compound: CNC(=C[N+](=O)[O-])NCCN1CCC(C(=O)c2ccc(F)cc2)CC1 [Example 24, N-[2-[4-(4-Fluorobenzoyl)-1-piperidinyl]ethyl]-N'-methyl-2-nitro-1,1-ethenediamine]
- IC50 [1]: 2900 nM
- minimal effective dose [2]: 10 mg/kg
